{"source": "patent US8461176B2", "about": "“Enantiomerically enriched aryloazol-2-yl cyanoethylamino compounds, method of making and method of using thereof” (Merial Limited, priority 2008, dated 2013)", "key": {"Haemonchus contortus [1]": {"system": "Haemonchus contortus", "assay": "Method A: screening of activity against Haemonchus contortus L1 larvae in microtitre plate (development to L3 / motility)", "settings": "Haemonchus contortus, 96 h, 4 days assessment; for inhibition at 0.04 ppm: test concentration 0.04 ppm; for inhibition at 0.01 ppm: test concentration 0.01 ppm; for inhibition at 0.6 ppm: test concentration 0.6 ppm", "text": "Method A: Screening Method to Test Activity of Compounds Against Haemonchus contortus."}, "Haemonchus contortus [2]": {"system": "Haemonchus contortus", "assay": "Method B: activity against Haemonchus contortus in vivo in Mongolian gerbil", "design": "species or system Mongolian gerbil (Meriones unguiculatus)", "settings": "po, 72 h, oral gavage, read-out: reduction in nematode infection", "protocol": "Method B: Screening Method to Test Activity of Compounds Against Haemonchus contortus In Vivo in Mongolian Gerbil (Meriones unguiculatus).\nMongolian gerbils, at least five weeks old, were immunosuppressed and artificially infected with ca. 1000 ensheathed Haemonchus contortus third instar larvae. Six days after infection, the Mongolian gerbils were treated by oral gavage with the test compounds, dissolved in a mixture of 2 parts DMSO and 1 part polyethylene glycol (PEG400), at doses of 100 mg/kg and dissolved in pure polyethylene glycol (PEG400) at doses of 10 and 1 mg/kg. Mongolian gerbils treated only with the placebo (2 parts DMSO and 1 part PEG400 or pure PEG400) served as controls. On day 9 (3 days after treatment) the jirds were euthanized and necropsied for recovery of parasites from the stomach. Efficacy was calculated as the average % reduction in the number of worms in each test group compared with the average number of worms from the control group. […] Compound numbers 1.001, 1.008, 1.012, 1.013 and 1.014 provided at least 95% reduction in nematode in Mongolian gerbils treated by oral gavage with test article at a dose of 100 mg/kg. Compound numbers 1.012, 1.033, 1.064, 2.008, 2.037, 2.038, 2.040, 2.041, 3.001 provided at least 95% reduction in nematode infection at a dose of 10 mg/kg. Compound numbers 1.094, 1.096, 2.048, 3.001, 3.007 and 3.009, provided at least 95% reduction in nematode infection at a dose of 1 mg/kg. Compound numbers 3.006, 3.017 and 3.019 provided at least 95% reduction in nematode infection at a dose of 0.5 mg/kg. Compound numbers 3.005, 3.011 and 3.012 provided at least 95% reduction in nematode infection at a dose of 0.3 mg/kg. The eutomer compound number 3.024 provided at least 95% reduction in nematode infection at a dose of 0.1 mg/kg."}, "[3]": {"assay": "Feed solubility in ethanol (preparative chiral separation)", "type": "physicochemical", "settings": "organic solvent or mixture, with stirring and heating", "protocol": "The feed solution was filtered through a 0.2 μm filter before use. The enantiomers were separated using a CHIRALPAK®AD® column (CHIRAL Technologies Inc., 20 μm particle size of amylose tris(3,5-dimethylphenylcarbamate) polysaccharide CHIRALPAK®AD® stationary phase, 5 cm internal diameter, 50 cm length at 25° C. and flow rate of 110 mL/min) with injection volume of 65 mL every 11 min. The fractions collected from the chromatographic process for each of the two chromatographic eluting peaks were concentrated using a a 20 L rotary evaporator at 40° C. and 50 mbar. After solvent removal, the products were dried to constant weight in a vacuum oven at 40° C. The target eutomer (+)-N-[2-(6-Bromo-2H-pyrazolo[4,3-b]pyridin-2-yl)-1-cyano-1-methylethyl]-4-trifluoromethoxybenzamide was isolated from the first eluting peak with a recovery yield of 89.0% (19.3 g). […] The distomer (−)-N-[2-(6-Bromo-2H-pyrazolo[4,3-b]pyridin-2-yl)-1-cyano-1-methylethyl]-4-trifluoromethoxybenzamide was isolated from the second eluting peak with a recovery yield of 94.5% (20.5 g). The percent enantiomeric excess of the distomer is 98.8% as measured via analytical chiral HPLC using a CHIRALPAK®AD® column (CHIRAL Technologies Inc., 4.6×250 mm, at 30° C., flow rate of 0.7 mL/min of EtOH mobile phase, retention time=12.5 min)."}, "[4]": {"system": "ivermectin-resistant Ostertagia circumcincta", "assay": "Method I: sheep in vivo, ivermectin-resistant Ostertagia circumcincta", "settings": "ivermectin orally at 0.2 mg/kg", "text": "(§1) Method I: Screening Method to Test Activity of Compounds Against Ivermectin-Resistant Haemonchus contortus, Ostertagia circumcincta, and Trichostrongylus colubriformis In Vivo in Sheep.\n(§2) Sheep were challenged orally with infective 3rd stage larvae (L3) of Ostertagia circumcincta (˜3,000-6,000 infective L3 per animal) on Dat −28, Haemonchus contortus (˜2,000-4,000 infective L3 per animal) on Dat −25, and Trichostrongylus colubriformis (˜3,000-6,000 infective L3 per species per animal) on Dat −23. The inoculation schedule was designed so that nematodes were expected to be in the adult stage on Day 0. Test compounds were dissolved in a mixture of DMSO/Corn oil (1:1) at a concentration of 10 mg/mL. All treatments were administered orally once on Day 0. At sacrifice on Day 14 the abomasum, small intestine and large intestine (including cecum) were removed. Nematode counts were conducted on 10% (abomasal and small intestinal content, abomasal soak) or 20% aliquots (large intestinal content). All nematodes were speciated, or assigned to species based on location of recovery (adult females, fourth-stage larvae) for a total count per species. Efficacy was calculated as the % reduction in the mean number of worms in each test group compared with the mean number of worms recovered from the control group. […]"}, "Nematodirus helvetianus": {"system": "Nematodirus helvetianus", "assay": "Method H: cattle in vivo, Nematodirus helvetianus", "settings": "ivermectin alone, 0.2 mg/kg (200 μg/kg) subcutaneously", "text": "(§3) Method H: Screening Method to Test Activity of Compounds Against Haemonchus placei, Ostertagia ostertagi, Trichostrongylus axei, Cooperia punctata, Bunostomum phlebotomum, Oesophagostomum radiatum, Dictyocaulus viviparus, and Nematodirus helvetianus In Vivo in Cattle.\n(§4) Calves were challenged intra-aurally with larvae from Bunostomum phlebotomum (500-1000 L3 per animal) on Dat −56; and orally with larvae from Oesophagostomum radiatum (1,000-2,000 infective L3 per animal) on Dat −49, Nematodirus helvetianus (3,000-6,000 infective L3 per animal) on Dat −28, Haemonchus placei (5,000-7,000 infective L3 per animal) on Dat −28, Dictyocaulus viviparus (1,000-2,000 infective L3 per animal) on Dat −28, Ostertagia ostertagi (10,000-20,000 infective L3 per animal) on Dat −21, Trichostrongylus axei (10,000-20,000 infective L3 per animal) on Dat −21, Cooperia punctata (10,000-20,000 infective L3 per animal) on Dat −28, and Cooperia oncophora (10,000-20,000 infective L3 per animal) on Dat −21. The test compound was administered alone at a dose of 3 or 6 mg/kg orally or subcutaneously or subcutaneously at a dose of 6 mg/kg in combination with ivermectin at a dose of 50 mcg/kg. For oral administration, test compounds were formulated at a concentration of 10 mg/mL in DMSO/Corn oil (1:1). For subcutaneous administration, test compounds were formulated in propylene glycol/glycerol formal (60:40). All treatments were administered at Day 0. At necropsy on Day 14/15, the abomasa, small intestine and large intestine were removed and processed for parasite recovery. Nematode counts were conducted on appropriate aliquots. Efficacy was calculated for each nematode species by calculating the percent efficacy as 100[(C−T)/C], where C is the mean count among untreated controls and T is the count of the treated animals. Compound number 3.024 provided >95% efficacy against Haemonchus placei, Ostertagia ostertagi, Trichostrongylus axei, Cooperia punctata, Oesophagostomum radiatum and Nematodirus helvetianus at a dose as low as 3 mg/kg administered orally. […]"}, "[5]": {"system": "ivermectin-resistant Haemonchus contortus", "assay": "Method I: sheep in vivo, ivermectin-resistant Haemonchus contortus", "settings": "ivermectin orally at 0.2 mg/kg", "text": "as §1, §2"}, "Haemonchus placei": {"system": "Haemonchus placei", "assay": "Method H: cattle in vivo, Haemonchus placei", "settings": "ivermectin alone, 0.2 mg/kg (200 μg/kg) subcutaneously", "text": "as §3, §4"}, "[6]": {"system": "ivermectin-resistant Trichostrongylus columbriformis", "assay": "Method I: sheep in vivo, ivermectin-resistant Trichostrongylus colubriformis", "settings": "ivermectin orally at 0.2 mg/kg", "text": "as §1, §2"}}}
{"compound": "CC(C#N)(Cn1nc2c(Cl)cc(Cl)c(Cl)c2n1)NC(=O)c1ccc(OC(F)(F)F)cc1", "note": "(single isomer, unassigned; (+)) [Compound 1.096, (+)-N-[1-Cyano-1-methyl-2-(4,5,7-trichloro-2H-benzotriazol-2-yl)-ethyl]-4-trifluoromethoxybenzamide]", "values": [{"measurement": "inhibition at 0.0025 ppm", "setting": "Haemonchus contortus [1]; test concentration 0.0025 ppm", "result": "≥ 90", "unit": "%"}, {"measurement": "inhibition in vivo at 1 mg/kg", "setting": "Haemonchus contortus [2]; dose 1 mg/kg, necropsy 3 days after treatment", "result": "≥ 95", "unit": "%"}]}
{"compound": "CC(C#N)(Cn1cc2ncc(Cl)cc2n1)NC(=O)c1ccc(OC(F)(F)F)cc1", "note": "(stereo not drawn) [Compound 3.005, N-[2-(6-Chloro-2H-pyrazolo[4,3-b]pyridin-2-yl)-1-cyano-1-methylethyl]-4-trifluoromethoxybenzamide]", "values": [{"measurement": "inhibition in vivo at 0.3 mg/kg", "setting": "Haemonchus contortus [2]", "result": "≥ 95", "unit": "%"}]}
{"compound": "CC(C#N)(Cn1cc2ncc(Br)cc2n1)NC(=O)c1ccc(OC(F)(F)F)cc1", "note": "(stereo not drawn) [Compound 3.011, N-[2-(6-Bromo-2H-pyrazolo[4,3-b]pyridin-2-yl)-1-cyano-1-methylethyl]-4-trifluoromethoxybenzamide]", "values": [{"measurement": "solubility", "setting": "[3]", "result": 8600, "unit": "µg/mL"}, {"measurement": "inhibition in vivo at 0.3 mg/kg", "setting": "Haemonchus contortus [2]", "result": "≥ 95", "unit": "%"}]}
{"compound": "C[C@](C#N)(Cn1cc2ncc(Br)cc2n1)NC(=O)c1ccc(OC(F)(F)F)cc1", "note": "[Compound 3.025, (−)-N-[2-(6-Bromo-2H-pyrazolo[4,3-b]pyridin-2-yl)-1-cyano-1-methylethyl]-4-trifluoromethoxybenzamide]", "values": [{"measurement": "inhibition at 0.3 ppm", "setting": "Haemonchus contortus [1]; test concentration 0.3 ppm", "result": "< 90", "unit": "%"}, {"measurement": "inhibition in vivo at 0.3 mg/kg", "setting": "Haemonchus contortus [2]", "result": "< 95", "unit": "%"}]}
{"compound": "CC(C#N)(Cn1cc2ncc(Br)cc2n1)NC(=O)c1ccc(C(F)(F)F)cc1", "note": "(stereo not drawn) [Compound 3.047, N-[2-(6-Bromo-2H-pyrazolo[4,3-b]pyridin-2-yl)-1-cyano-1-methylethyl]-4-trifluoromethylbenzamide]", "values": [{"measurement": "inhibition at 0.04 ppm", "setting": "Haemonchus contortus [1]", "result": "≥ 90", "unit": "%"}]}
{"compound": "CC(C#N)(Cn1cc2ncc(Br)cc2n1)NC(=O)c1ccc(Oc2ccccc2)cc1", "note": "(stereo not drawn) [Compound 3.048, N-[2-(6-Bromo-2H-pyrazolo[4,3-b]pyridin-2-yl)-1-cyano-1-methylethyl]-4-phenoxybenzamide]", "values": [{"measurement": "inhibition at 0.01 ppm", "setting": "Haemonchus contortus [1]", "result": "≥ 90", "unit": "%"}]}
{"compound": "CC(C#N)(Cn1cc2ncc(Br)cc2n1)NC(=O)c1ccc(I)cc1", "note": "(stereo not drawn) [Compound 3.049, N-[2-(6-Bromo-2H-pyrazolo[4,3-b]pyridin-2-yl)-1-cyano-1-methylethyl]-4-iodobenzamide]", "values": [{"measurement": "inhibition at 0.04 ppm", "setting": "Haemonchus contortus [1]", "result": "≥ 90", "unit": "%"}]}
{"compound": "CC(C#N)(Cn1cc2ncc(Br)cc2n1)NC(=O)c1ccc(-c2ccccc2)cc1", "note": "(stereo not drawn) [Compound 3.050, N-[2-(6-Bromo-2H-pyrazolo[4,3-b]pyridin-2-yl)-1-cyano-1-methylethyl]-biphenyl-4-carboxamide]", "values": [{"measurement": "inhibition at 0.15 ppm", "setting": "Haemonchus contortus [1]; test concentration 0.15 ppm", "result": "≥ 90", "unit": "%"}]}
{"compound": "CCCCCCc1ccc(C(=O)NC(C)(C#N)Cn2cc3ncc(Br)cc3n2)cc1", "note": "(stereo not drawn) [Compound 3.051, N-[2-(6-Bromo-2H-pyrazolo[4,3-b]pyridin-2-yl)-1-cyano-1-methylethyl]-4-hexylbenzamide]", "values": [{"measurement": "inhibition at 0.6 ppm", "setting": "Haemonchus contortus [1]", "result": "≥ 90", "unit": "%"}]}
{"compound": "COc1nc2cn(CC(C)(C#N)NC(=O)c3ccc(OC(F)(F)F)cc3)nc2cc1Br", "note": "(stereo not drawn) [Compound 3.052, N-[2-(6-Bromo-5-methoxy-2H-pyrazolo[4,3-b]pyridin-2-yl)-1-cyano-1-methylethyl]-4-trifluoromethoxybenzamide]", "values": [{"measurement": "inhibition at 0.01 ppm", "setting": "Haemonchus contortus [1]", "result": "≥ 90", "unit": "%"}]}
{"compound": "CC(C#N)(Cn1cc2ncc(Br)cc2n1)NC(=O)c1ccc(OC(F)(F)F)cc1F", "note": "(stereo not drawn) [Compound 3.056, N-[2-(6-Bromo-2H-pyrazolo[4,3-b]pyridin-2-yl)-1-cyano-1-methylethyl]-2-fluoro-4-trifluoromethoxybenzamide]", "values": [{"measurement": "inhibition at 0.04 ppm", "setting": "Haemonchus contortus [1]", "result": "≥ 90", "unit": "%"}]}
{"compound": "CC(C#N)(Cn1cc2ccnc(Br)c2n1)NC(=O)c1ccc(OC(F)(F)F)cc1", "note": "(stereo not drawn) [Compound 4.005, N-[2-(7-Bromo-2H-pyrazolo[3,4-c]pyridin-2-yl)-1-cyano-1-methylethyl]-4-trifluoromethoxybenzamide]", "values": [{"measurement": "inhibition at 0.6 ppm", "setting": "Haemonchus contortus [1]", "result": "≥ 90", "unit": "%"}]}
{"compound": "CC(C#N)(Cn1cc2cc(Br)cnc2n1)NC(=O)c1ccc(OC(F)(F)F)cc1", "note": "(stereo not drawn) [Compound 5.001, N-[2-(5-Bromo-2H-pyrazolo[3,4-b]pyridin-2-yl)-1-cyano-1-methylethyl]-4-trifluoromethoxybenzamide]", "values": [{"measurement": "inhibition at 0.6 ppm", "setting": "Haemonchus contortus [1]", "result": "≥ 90", "unit": "%"}]}
{"compound": "ivermectin [reference compound]", "values": [{"measurement": "efficacy against ivermectin-resistant Ostertagia circumcincta", "setting": "[4]", "result": "less than 30%"}, {"measurement": "efficacy against Nematodirus helvetianus", "setting": "Nematodirus helvetianus", "result": "less than 30%"}, {"measurement": "activity against ivermectin-resistant Haemonchus contortus", "setting": "[5]", "result": "almost completely inactive"}, {"measurement": "efficacy against Haemonchus placei (ivermectin-resistant strain)", "setting": "Haemonchus placei", "result": "less than 70%"}, {"measurement": "efficacy against ivermectin-resistant Trichostrongylus columbriformis", "setting": "[6]", "result": "less than 60%"}]}
